# Assay results published in patent US20210116454A1, “METHODS FOR TREATING A HEMATOLOGICAL CANCER AND THE USE OF COMPANION BIOMARKERS FOR 2-(2,6-DIOXOPIPERIDIN-3-YL)-4-((2-FLUORO-4-((3-MORPHOLINOAZETIDIN-1-YL)METHYL)BENZYL)AMINO)ISOINDOLINE-1,3-DIONE” (CELGENE CORPORATION, priority 2019, published 2021).
# Read-outs that look alike come from different tables or passages of the source.
# Experiments:
# [1] = test system: KARPAS-422, RIVA, HT, and SU-DHL-4 cell lines; assay: Dose response in cells expressing degradation-resistant mutants of Ikaros, Aiolos, ZFP91; format: cell-based; settings: KARPAS-422 and SU-DHL-4
# Excerpt: To test whether Ikaros and Aiolos were redundant in promoting the survival and proliferation of DLBCL lines, degradation-resistant mutants of Ikaros (IKZF1-G151A), Aiolos (IKZF3-G152A), and ZFP91 (ZFP91-G405A), along with NanoLuc luciferase (Nluc) as a control, were ectopically and stably expressed in four DLBCL cell lines: KARPAS-422, RIVA, HT, and SU-DHL-4. Dose response curves with Compound 1 indicate that expression of degradation-resistant mutants of Ikaros or Aiolos provided protection from Compound 1 in all four cell lines (FIG. 11). Additionally, the ectopic expression of the degradation-resistant mutants, as well as their protection against Compound 1-induced degradation, was confirmed by immunoblot analysis. […] Beta-actin levels were used as a control. […] However, there were varying degrees of protection observed in the four cell lines.
# [2] = test system: Karpas-422 cells; assay: Western blot of substrates and downstream proteins; format: cell-based
# Protocol: (§1) To confirm that the rapid degradation of substrates and induction of apoptosis by Compound 1 is not unique to SU-DHL2 cells, TMD8 (ABC cell line) and Karpas-422 (GCB-cell line) cells were treated with vehicle control (DMSO) or Compound 1 at the times and concentrations indicated (FIG. 6).
# (§2) In a second experiment, we confirmed that Compound 1 (100 nM) treatment of TMD8 produced a large reduction of Aiolos, Ikaros, and ZFP91 at the 24-hour timepoint. […] In Karpas-422 cells, Compound 1 also produced a reduction of Aiolos, Ikaros, and ZFP91 at the 24-hour timepoint (FIG. 6, panel D). At the 48-hour timepoint, Compound 1 increased the abundance of the proliferation inhibitor p21 and the interferon-stimulated genes IRF7, IFIT3, and DDX58, and reduced the expression of MYC (FIG. 6, panel D).
# [3] = test system: TMD8 cells; assay: Western blot of substrates and downstream proteins; format: cell-based
# Protocol: as §1, §2
# [4] = test system: CRBN^WT and CRBN^−/− DLBCL cells; assay: Proliferation of CRBN^WT and CRBN^−/− DLBCL cells (six lines); format: cell-based
# Excerpt: The activated B-cell (ABC) and MYC/BCL2 double expressor cell lines SU-DHL-2 and RIVA, the germinal center B-cell (GCB) and MYC/BCL2 double hit cell lines (and expressing BCL6) Karpas-422, SU-DHL-10, WSU-DLCL2, and the primary mediastinal B-cell lymphoma (PMBL) cell line Farage were infected with a CAS9 expressing lentivirus construct to generate the control CAS9 expressing cells. The Cas9 cells had wild type cereblon expression (CRBN^WT).
# To generate the cereblon knock out cells (CRBN^−/−), the individual control CAS9 cells were infected with a construct expressing a subgenomic single guide RNA (sgRNA). Western blot analysis confirmed the absence of cereblon protein in the CRBN^−/− cells, relative to the levels of the housekeeping protein β-tubulin. The CRBN^WT and CRBN^−/− cells were treated with increasing concentrations of Compound 1 for five days.
# [5] = test system: bone marrow CD34+ cells from healthy donors; assay: Ex vivo maturation of myeloid progenitors to neutrophils (flow cytometry); format: cell-based
# Protocol: The effects of Compound 1 on maturation of myeloid progenitors to neutrophils were assessed in ex vivo cultures of bone marrow CD34+ cells from healthy donors and different dosing schedules were evaluated to gain insight into the schedule dependence of these events.
# Myeloid differentiation was induced by adding stem cell factor (SCF), FMS-related tyrosine kinase 3 ligand (FLT3-L), and granulocyte colony stimulating factor (G-CSF) to culture media. Cell differentiation in the presence or absence of Compound 1 was evaluated at prespecified time points by flow cytometry as the percentage of cells in 5 subpopulations: (1) hematopoietic stem cells (HSC, CD34+/CD33−/CD11b−); (2) Stage I cells (CD34+/CD33+/CD11b−); (3) Stage II cells (CD34−/CD33+/CD11b−); (4) Stage III cells (CD34−/CD33+/CD11b+) and (5) Stage IV cells (CD34−/CD33−/CD11b+) cells (from immature to mature). Differentiation and viability were monitored during the complete assay every two or three days.
# However, the viability of neutrophil precursors exposed to Compound 1 was not affected (FIG. 18).
# Recovery of mature neutrophils after Compound 1 exposure was also evaluated in the system.
# [6] = molecular target: Ikaros (Homo sapiens, UniProt Q13422+Q96SW2); assay: Enzyme fragment complementation (EFC) degradation assay, DF15 cells expressing ePL-tagged substrate; format: cell-based; parameters: expressed in transfected cells; host or cells: DF15 cells; settings: for Emax: DF15, DF15 ePL-Ikaros, remaining substrate; for DC50: DF15 ePL-Ikaros, read-out: Ikaros degradation EC50
# Ikaros, sequence (Q13422 whole entry, the tested form may be a part): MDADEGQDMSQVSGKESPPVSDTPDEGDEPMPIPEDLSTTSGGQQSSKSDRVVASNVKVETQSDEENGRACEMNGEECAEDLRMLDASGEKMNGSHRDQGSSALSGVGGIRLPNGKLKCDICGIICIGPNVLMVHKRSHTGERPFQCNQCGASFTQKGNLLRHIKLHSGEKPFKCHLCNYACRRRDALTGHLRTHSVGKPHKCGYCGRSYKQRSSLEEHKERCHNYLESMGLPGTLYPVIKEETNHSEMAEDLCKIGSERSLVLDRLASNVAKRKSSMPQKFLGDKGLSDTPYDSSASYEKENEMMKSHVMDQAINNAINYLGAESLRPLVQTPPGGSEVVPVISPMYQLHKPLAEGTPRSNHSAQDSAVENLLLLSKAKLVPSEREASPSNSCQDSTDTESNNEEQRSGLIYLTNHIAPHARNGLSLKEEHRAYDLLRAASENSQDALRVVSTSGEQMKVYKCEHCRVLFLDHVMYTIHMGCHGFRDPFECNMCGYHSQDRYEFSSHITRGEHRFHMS
# Ikaros, sequence (Q96SW2 whole entry, the tested form may be a part): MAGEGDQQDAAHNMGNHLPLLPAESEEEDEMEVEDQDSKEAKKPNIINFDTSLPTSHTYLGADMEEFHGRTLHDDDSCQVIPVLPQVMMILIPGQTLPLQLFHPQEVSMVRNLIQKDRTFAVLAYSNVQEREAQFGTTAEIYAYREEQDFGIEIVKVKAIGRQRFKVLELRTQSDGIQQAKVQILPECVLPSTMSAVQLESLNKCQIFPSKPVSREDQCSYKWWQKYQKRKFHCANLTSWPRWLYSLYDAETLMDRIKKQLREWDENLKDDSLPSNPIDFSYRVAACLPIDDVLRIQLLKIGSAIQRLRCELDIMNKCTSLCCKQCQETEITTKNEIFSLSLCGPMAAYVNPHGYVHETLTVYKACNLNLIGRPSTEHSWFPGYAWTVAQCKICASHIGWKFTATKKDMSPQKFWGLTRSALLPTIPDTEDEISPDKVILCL
# Ikaros, sequence (Q16531 whole entry partner, the tested form may be a part): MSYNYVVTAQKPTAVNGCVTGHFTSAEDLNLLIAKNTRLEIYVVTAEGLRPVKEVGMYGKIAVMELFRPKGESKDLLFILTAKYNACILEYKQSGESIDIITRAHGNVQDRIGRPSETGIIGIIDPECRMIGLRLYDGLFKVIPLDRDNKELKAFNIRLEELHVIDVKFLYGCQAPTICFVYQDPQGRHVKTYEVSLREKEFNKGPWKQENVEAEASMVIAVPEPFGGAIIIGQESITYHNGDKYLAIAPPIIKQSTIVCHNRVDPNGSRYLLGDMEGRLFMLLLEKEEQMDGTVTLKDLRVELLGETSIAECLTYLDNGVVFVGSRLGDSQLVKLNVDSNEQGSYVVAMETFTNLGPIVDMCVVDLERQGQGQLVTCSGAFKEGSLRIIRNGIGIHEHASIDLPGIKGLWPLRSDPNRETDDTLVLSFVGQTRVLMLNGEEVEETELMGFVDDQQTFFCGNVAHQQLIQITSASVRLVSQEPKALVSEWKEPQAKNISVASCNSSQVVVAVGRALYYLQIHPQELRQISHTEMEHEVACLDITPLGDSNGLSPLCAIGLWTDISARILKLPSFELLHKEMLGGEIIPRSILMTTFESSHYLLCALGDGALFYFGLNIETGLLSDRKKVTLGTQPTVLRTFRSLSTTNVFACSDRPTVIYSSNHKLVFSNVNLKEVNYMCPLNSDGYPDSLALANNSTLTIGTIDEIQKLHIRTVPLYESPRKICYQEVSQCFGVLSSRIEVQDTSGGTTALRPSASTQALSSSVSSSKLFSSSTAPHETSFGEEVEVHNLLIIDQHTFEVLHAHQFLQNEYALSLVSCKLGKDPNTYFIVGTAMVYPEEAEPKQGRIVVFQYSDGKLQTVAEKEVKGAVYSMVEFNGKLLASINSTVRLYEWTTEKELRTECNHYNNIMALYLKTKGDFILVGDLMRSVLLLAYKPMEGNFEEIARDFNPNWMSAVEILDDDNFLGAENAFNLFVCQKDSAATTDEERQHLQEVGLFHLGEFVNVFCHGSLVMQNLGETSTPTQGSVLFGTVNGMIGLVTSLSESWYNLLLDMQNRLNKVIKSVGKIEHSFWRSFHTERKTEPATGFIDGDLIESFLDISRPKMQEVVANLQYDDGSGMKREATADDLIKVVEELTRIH
# [7] = test system: BT system; assay: BioMAP BT system (B cells and PBMCs); format: cell-based, human; settings: 0.01, 0.1, 1, and 10 μM
# Protocol: The activity of Compound 1 was profiled in a panel of human primary cell-based assays, modeling complex tissue and disease biology of organs (vasculature, immune system, skin, lung) and general tissue biology using the BioMAP System (DiscoveRx, Fremont, Calif.).
# The BioMAP System consists of twelve primary human monoculture or co-culture systems in stimulated and non-stimulated control conditions (FIG. 4, panel A). When tested at 0.01, 0.1, 1, and 10 μM, Compound 1 mediated changes in key biomarker activities. Specifically, the profiles for Compound 1 reflected selective anti-inflammatory and immunomodulatory impact on monocyte (LPS) and T cell dependent B cell activation responses (BT). Treatment with Compound 1 led to a decrease in interleukin 8 (IL-8), interleukin 1a (IL-1a), secreted prostaglandin E2 (sPGE2), and secreted tumor necrosis factor alpha (sTNFα) in the LPS system, which consisted of peripheral blood mononuclear cells (PBMCs) and endothelial cells. Furthermore, secreted IgG (sIgG), secreted interleukin 17A (sIL-17A), secreted interleukin 17F (sIL-17F), and sTNFα decreased, whereas secreted interleukin 2 (sIL-2) and secreted interleukin 6 (sIL-6) increased, in the BT system, which was comprised of B cells and PBMCs.
# [8] = TMD8, 100 nM, 24-hour timepoint
smiles,measurement,setting,value
"O=C1CC[C@H](N2C(=O)c3cccc(NCc4ccc(CN5CC(N6CCOCC6)C5)cc4F)c3C2=O)C(=O)N1 [Compound 1, (S)-2-(2,6-dioxopiperidin-3-yl)-4-((2-fluoro-4-((3-morpholinoazetidin-1-yl)methyl)benzyl)amino)isoindoline-1,3-dione]",protection by degradation-resistant mutants of Ikaros or Aiolos,[1],nearly complete protection
same,"Ikaros, Aiolos, and ZFP91 protein expression","[2]; Karpas-422, 10 and 100 nM, entire course of treatment",complete suppression
same,MYC reduction,"[2]; Karpas-422, after 72 hours",50%
same,BCL6 reduction,[3]; [8],65%
same,IRF4 reduction,[3]; [8],90%
same,MYC reduction,[3]; [8],75%
same,"Ikaros, Aiolos, and ZFP91 protein expression","[3]; TMD8, 10 and 100 nM, entire course of treatment",complete suppression
same,IC50,"[4]; 120 h, six DLBCL lines, five days, read-out: IC50 in control CAS9 expressing cells (CRBN^WT)",2.5 to 40 nM
same,effect of CRBN knock-out on antiproliferative activity,[4]; CRBN^−/− cells,blocked the antiproliferative activity
same,late-stage maturation of neutrophil progenitors,[5]; 14 or 5 days of exposure,blocked
same,Number of Days in Washout Period Required for Recovery to 50% of Stage IV Cells,"[5]; 5 days treatment, 0.1 nM",0 days
same,Number of Days in Washout Period Required for Recovery to 50% of Stage IV Cells,"[5]; 5 days treatment, 1 nM",1 days
same,Number of Days in Washout Period Required for Recovery to 50% of Stage IV Cells,"[5]; 5 days treatment, 10 nM",1 days
same,Number of Days in Washout Period Required for Recovery to 50% of Stage IV Cells,"[5]; 5 days treatment, 1000 nM",5 days
same,Number of Days in Washout Period Required for Recovery to 50% of Stage IV Cells,"[5]; 14 days treatment, 0.1 nM",0 days
same,Number of Days in Washout Period Required for Recovery to 50% of Stage IV Cells,"[5]; 14 days treatment, 1 nM",0 days
same,Number of Days in Washout Period Required for Recovery to 50% of Stage IV Cells,"[5]; 14 days treatment, 100 nM",4 days
same,Number of Days in Washout Period Required for Recovery to 50% of Stage IV Cells,"[5]; 14 days treatment, 1000 nM",4 days
same,viability of neutrophil precursors,"[5]; Annexin V and 7-AAD, 14 or 5 days exposure",not affected
same,recovery of the proportion of mature neutrophils (Stage IV cells) from its nadir,[5]; after 1 week without Compound 1,≥ 50%
same,recovery of Stage IV cells relative to Stage IV cell population in the DMSO control,"[5]; one week without drug, all tested conditions",at least 50%
same,Emax,[6]; 1 hour,75.5%
same,Emax,[6]; 2 hours,33%
same,Emax,[6]; 6 hours,1.5%
same,Emax,[6]; 24 hours,0.03%
same,DC50,[6]; 1 hour,0.6 nM
same,DC50,[6]; 2 hours,0.8 nM
same,DC50,[6]; 6 hours,0.5 nM
same,DC50,[6]; 24 hours,0.4 nM
same,sIL-2 and sIL-6,[7],increased
same,"sIgG, sIL-17A, sIL-17F, and sTNFα",[7],decreased
